According to US11911393B2, “Non-catalytic substrate-selective p38alpha-specific MAPK inhibitors with endothelial-stabilizing and anti-inflammatory activity, and methods of use thereof” (University of Maryland, Baltimore, priority 2016, dated 2024):

Tested on: TNFα-induced gene expression in HMVECLs
Assay: RNASeq of TNFα-induced gene expression
Type: cell-based, human
Settings: 100 μM UM101, 10 μM SB203580

`C[S+]([O-])c1ccc(-c2nc(-c3ccncc3)c(-c3ccc(F)cc3)[nH]2)cc1` (centres unmarked) [SB203580, reference compound] was tested, and the “bin (gene expression response pattern): MAP2K6” value (HMVECLs, TNFα) was 1, the “bin (gene expression response pattern): MMP9” value (HMVECLs, TNFα) was 3 and the “bin (gene expression response pattern): MUC4” value (HMVECLs, TNFα) was 3. The “bin (gene expression response pattern): NEURL3” value (HMVECLs, TNFα) was 5, the “bin (gene expression response pattern): NIPAL4” value (HMVECLs, TNFα) was 5 and the “bin (gene expression response pattern): NOG” value (HMVECLs, TNFα) was 5. The “bin (gene expression response pattern): NUAK1” value (HMVECLs, TNFα) was 5, the “bin (gene expression response pattern): NUAK2” value (HMVECLs, TNFα) was 5 and the “bin (gene expression response pattern): OR2I1P” value (HMVECLs, TNFα) was 3. The “bin (gene expression response pattern): PALMD” value (HMVECLs, TNFα) was 5, the “bin (gene expression response pattern): PCDH17” value (HMVECLs, TNFα) was 5 and the “bin (gene expression response pattern): PCLO” value (HMVECLs, TNFα) was 5. For the same compound, the “bin (gene expression response pattern): PDE7B” value (HMVECLs, TNFα) was 5, the “bin (gene expression response pattern): PDK4” value (HMVECLs, TNFα) was 5 and the “bin (gene expression response pattern): PGF” value (HMVECLs, TNFα) was 5. For the same compound, the “bin (gene expression response pattern): PLA1A” value (HMVECLs, TNFα) was 3, the “bin (gene expression response pattern): PRICKLE1” value (HMVECLs, TNFα) was 5 and the “bin (gene expression response pattern): PRKCH” value (HMVECLs, TNFα) was 5. For the same compound, the “bin (gene expression response pattern): PRRG4” value (HMVECLs, TNFα) was 3, the “bin (gene expression response pattern): PTGER4P2” value (HMVECLs, TNFα) was 5 and the “bin (gene expression response pattern): RASSF9” value (HMVECLs, TNFα) was 5. For the same compound, the “bin (gene expression response pattern): RGCC” value (HMVECLs, TNFα) was 5, the “bin (gene expression response pattern): RIMS1” value (HMVECLs, TNFα) was 5 and the “bin (gene expression response pattern): RN7SL471P” value (HMVECLs, TNFα) was 5. The “bin (gene expression response pattern): RNF152” value (HMVECLs, TNFα) was 5, the “bin (gene expression response pattern): RP11-197M22.2” value (HMVECLs, TNFα) was 5 and the “bin (gene expression response pattern): RP11-244F12.3” value (HMVECLs, TNFα) was 5. For the same compound, the “bin (gene expression response pattern): RP11-284F21.7” value (HMVECLs, TNFα) was 1, the “bin (gene expression response pattern): RP11-309L24.2” value (HMVECLs, TNFα) was 5 and the “bin (gene expression response pattern): RP11-490B18.5” value (HMVECLs, TNFα) was 3. For the same compound, the “bin (gene expression response pattern): RP11-758N13.1” value (HMVECLs, TNFα) was 5, the “bin (gene expression response pattern): RPA4” value (HMVECLs, TNFα) was 5 and the “bin (gene expression response pattern): SEMA6D” value (HMVECLs, TNFα) was 1. The “bin (gene expression response pattern): SERTAD4” value (HMVECLs, TNFα) was 5, the “bin (gene expression response pattern): SGK223” value (HMVECLs, TNFα) was 5 and the “bin (gene expression response pattern): SH3RF2” value (HMVECLs, TNFα) was 5. The “bin (gene expression response pattern): SH3TC2” value (HMVECLs, TNFα) was 5, the “bin (gene expression response pattern): SLC15A3” value (HMVECLs, TNFα) was 3 and the “bin (gene expression response pattern): SLC16A6” value (HMVECLs, TNFα) was 5. For the same compound, the “bin (gene expression response pattern): SLC45A3” value (HMVECLs, TNFα) was 5, the “bin (gene expression response pattern): SLCO4A1” value (HMVECLs, TNFα) was 5 and the “bin (gene expression response pattern): SMAD6” value (HMVECLs, TNFα) was 5. The “bin (gene expression response pattern): SNORD12B” value (HMVECLs, TNFα) was 3, the “bin (gene expression response pattern): SOX18” value (HMVECLs, TNFα) was 5 and the “bin (gene expression response pattern): SSTR1” value (HMVECLs, TNFα) was 5. The “bin (gene expression response pattern): TCHH” value (HMVECLs, TNFα) was 3, the “bin (gene expression response pattern): TGFA” value (HMVECLs, TNFα) was 5 and the “bin (gene expression response pattern): TLR7” value (HMVECLs, TNFα) was 2. For the same compound, the “bin (gene expression response pattern): TRIL” value (HMVECLs, TNFα) was 1, the “bin (gene expression response pattern): TRPC6” value (HMVECLs, TNFα) was 5 and the “bin (gene expression response pattern): TSLP” value (HMVECLs, TNFα) was 3. For the same compound, the “bin (gene expression response pattern): UNC5B-AS1” value (HMVECLs, TNFα) was 5, the “bin (gene expression response pattern): VAV3” value (HMVECLs, TNFα) was 5 and the “bin (gene expression response pattern): VDR” value (HMVECLs, TNFα) was 3. The “bin (gene expression response pattern): Y_RNA” value (HMVECLs, TNFα) was 3, the “bin (gene expression response pattern): ZNF365” value (HMVECLs, TNFα) was 5 and the “bin (gene expression response pattern): ZNF467” value (HMVECLs, TNFα) was 5. The “bin (gene expression response pattern): ZNF521” value (HMVECLs, TNFα) was 5, the “bin (gene expression response pattern)” value (HPCA (ENSG00000121905)) was 8 and the “bin (gene expression response pattern)” value (IFIH1 (ENSG00000115267)) was 7. For the same compound, the “bin (gene expression response pattern)” value (IL1A (ENSG00000115008)) was 8, the “bin (gene expression response pattern)” value (IL3RA (ENSG00000185291)) was 7 and the “bin (gene expression response pattern)” value (IL12RB1 (ENSG00000096996)) was 8. For the same compound, the “bin (gene expression response pattern)” value (IRF8 (ENSG00000140968)) was 7, the “bin (gene expression response pattern)” value (KYNU (ENSG00000115919)) was 7 and the “bin (gene expression response pattern)” value (LINC00092 (ENSG00000225194)) was 7. For the same compound, the “bin (gene expression response pattern)” value (LST1 (ENSG00000204482)) was 7, the “bin (gene expression response pattern)” value (LYPD6 (ENSG00000187123)) was 7 and the “bin (gene expression response pattern)” value (MIR126 (ENSG00000199161)) was 7. The “bin (gene expression response pattern)” value (MOB3C (ENSG00000142961)) was 7, the “bin (gene expression response pattern)” value (MRGPRX4 (ENSG00000179817)) was 7 and the “bin (gene expression response pattern)” value (NKD2 (ENSG00000145506)) was 8. The “bin (gene expression response pattern)” value (NKX3-1 (ENSG00000167034)) was 8, the “bin (gene expression response pattern)” value (OLR1 (ENSG00000173391)) was 8 and the “bin (gene expression response pattern)” value (P2RX2 (ENSG00000187848)) was 8. The “bin (gene expression response pattern)” value (PARP14 (ENSG00000173193)) was 7, the “bin (gene expression response pattern)” value (PEXHG (ENSG00000104883)) was 7 and the “bin (gene expression response pattern)” value (PRRT2 (ENSG00000167371)) was 7. The “bin (gene expression response pattern)” value (RCAN1 (ENSG00000159200)) was 7, the “bin (gene expression response pattern)” value (RND1 (ENSG00000172602)) was 8 and the “bin (gene expression response pattern)” value (RP3-416H24.1 (ENSG00000257671)) was 8. The “bin (gene expression response pattern)” value (RP4-607I7.1 (ENSG00000255521)) was 7, the “bin (gene expression response pattern)” value (RP4-681N20.5 (ENSG00000275582)) was 8 and the “bin (gene expression response pattern)” value (RP4-734G22.3 (ENSG00000272078)) was 7. The “bin (gene expression response pattern)” value (RP11-79H23.3 (ENSG00000261618)) was 7, the “bin (gene expression response pattern)” value (RP11-158I3.3 (ENSG00000269826)) was 8 and the “bin (gene expression response pattern)” value (RP11-283G6.5 (ENSG00000255750)) was 7. The “bin (gene expression response pattern)” value (RP11-342K2.1 (ENSG00000279133)) was 8, the “bin (gene expression response pattern)” value (RP11-638I2.9 (ENSG00000258521)) was 8 and the “bin (gene expression response pattern)” value (RP11-875011.2 (ENSG00000246130)) was 7. The “bin (gene expression response pattern)” value (SCUBE2 (ENSG00000175356)) was 7, the “bin (gene expression response pattern)” value (SFMBT2 (ENSG00000198879)) was 7 and the “bin (gene expression response pattern)” value (SLC19A3 (ENSG00000135917)) was 7. For the same compound, the “bin (gene expression response pattern)” value (SLC26A9 (ENSG00000174502)) was 8, the “bin (gene expression response pattern)” value (SLC52A3 (ENSG00000101276)) was 7 and the “bin (gene expression response pattern)” value (TMEM52B (ENSG00000165685)) was 8. The “bin (gene expression response pattern)” value (TNF (ENSG00000232810)) was 8, the “bin (gene expression response pattern)” value (TNIP3 (ENSG00000050730)) was 7 and the “bin (gene expression response pattern)” value (TOX (ENSG00000198846)) was 8. For the same compound, the “bin (gene expression response pattern)” value (TP63 (ENSG00000073282)) was 8 and the “bin (gene expression response pattern)” value (VCAM1 (ENSG00000162692)) was 7.
